Test results as given in patent publication US9266908B2, “Inhibitors of arginase and their therapeutic applications” (MARS, INCORPORATED, priority 2011, dated 2016).

Tests used:
[1] = system: experimental autoimmune encephalomyelitis (EAE); settings: animals undergoing EAE; cited from earlier work
[2] = target: T1, human-Arginase-1 (Homo sapiens, UniProt P05089); assay: Urea production in CHOK cells stably transfected with human-Arginase-1; format: cell-based; settings: IC50 class, 5 mM arginine, 24 hours, read-out: CHOK Cell
T1 construct: expressed in transfected cells; host or cells: CHOK cells
T1 sequence (P05089 1-322): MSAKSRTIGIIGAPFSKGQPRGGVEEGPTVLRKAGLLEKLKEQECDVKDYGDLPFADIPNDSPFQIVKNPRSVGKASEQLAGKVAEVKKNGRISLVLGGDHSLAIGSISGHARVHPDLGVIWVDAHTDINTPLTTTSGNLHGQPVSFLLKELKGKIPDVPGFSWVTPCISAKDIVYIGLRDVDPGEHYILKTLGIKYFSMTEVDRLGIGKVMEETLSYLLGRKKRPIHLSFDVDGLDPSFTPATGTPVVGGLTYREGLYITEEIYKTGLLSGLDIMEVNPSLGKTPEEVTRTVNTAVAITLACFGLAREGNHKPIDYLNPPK

[3] = target: T2, human arginase I (ARG I) (Homo sapiens, UniProt P05089); assay: Inhibition of arginase I, spectrophotometric urea assay at 530 nm
T2 sequence (P05089 1-322): T1 sequence (P05089 1-322)
Description: Inhibition of arginase I (ARG I) and arginase II (ARG II) by the inventive compounds is followed spectrophotometrically at 530 nm. […] Solutions of arginase I and II are prepared in 100 mM sodium phosphate buffer, pH 7.4 containing 1 mg/ml of OVA to give an arginase stock solution at a final concentration of 100 ng/ml.
To each well of a 96-well microtiter plate is add 40 μl of enzyme, 10 μl of an inventive compound and 10 μl of enzyme substrate (L-arginine+ manganese sulfate). For wells that are used as positive controls, only the enzyme and its substrate are added, while wells used as negative controls contain only manganese sulfate.
After incubating the microtiter plate at 37° C. for 60 minutes, 150 μl of a urea reagent obtained by combining equal proportions (1:1) of reagents A and B is added to each well of the microtiter plate to stop the reaction. The urea reagent is made just before use by combining Reagent A (10 mM o-phthaldialdehyde, and 0.4% polyoxyethylene (23) lauryl ether (w/v) in 1.8 M sulfuric acid) with Reagent B (1.3 mM primaquine diphosphate, 0.4% polyoxyethylene (23) lauryl ether (w/v), 130 mM boric acid in 3.6 M sulfuric acid). After quenching the reaction mixture, the microtiter plate is allowed to stand for an additional 10 minutes at room temperature to allow color development. […] The normalized OD is then used to generate a dose-response curve by plotting the normalized OD values against log [concentration] and using regression analysis to compute the IC50 values.

[4] = target: T3, arginase II (ARG II) (Homo sapiens, UniProt P78540); assay: Inhibition of arginase II, spectrophotometric urea assay at 530 nm
T3 sequence (P78540 23-354): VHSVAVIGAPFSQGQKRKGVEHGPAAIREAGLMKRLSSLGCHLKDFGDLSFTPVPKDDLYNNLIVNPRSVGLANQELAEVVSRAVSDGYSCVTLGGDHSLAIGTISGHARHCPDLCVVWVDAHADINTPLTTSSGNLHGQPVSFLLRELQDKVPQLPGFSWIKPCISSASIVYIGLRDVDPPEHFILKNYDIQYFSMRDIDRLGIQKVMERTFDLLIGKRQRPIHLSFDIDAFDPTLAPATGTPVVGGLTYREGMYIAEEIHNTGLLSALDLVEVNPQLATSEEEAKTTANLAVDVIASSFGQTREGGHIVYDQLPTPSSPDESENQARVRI

[5] = system: bacterial arginase; settings: cited from earlier work
[6] = system: murine chronic model; settings: cited from earlier work
[7] = system: spontaneously hypertensive animals; settings: cited from earlier work

Row | IC50 [2] | IC50 [3] | IC50 [4] | SMILES | also measured
1 |  |  |  | NC(CCCCB(O)O)C(=O)O (stereo not drawn) [ABH, amino-6-boronohexanoic acid] | form of EAE developed versus control animals [1]: much milder form of EAE
2 | 1000 to 25000 nM | 0.1 to 25 nM | 0.1 to 25 nM | NC(CCCCB(O)O)(C(=O)O)[C@H]1C[C@@H](NCc2ccc(-c3ccc(Cl)cc3)cc2F)C1 (stereo partly drawn) [Example 49, (S)-2-amino-6-borono-2-((1s,3R)-3-((4′-chloro-3-fluorobiphenyl-4-yl)methylamino)cyclobutyl)hexanoic acid] | 
3 | 26000 to 100000 nM | 0.1 to 25 nM | 26 to 100 nM | NC(CCCCB(O)O)(C(=O)O)[C@H]1C[C@@H](NCCCc2ccc(C(F)(F)F)cc2)C1 (stereo partly drawn) [Example 56, (S)-2-amino-6-borono-2-((1s,3R)-3-(3-(4-(trifluoromethyl)phenyl)propylamino)cyclobutyl)hexanoic acid] | 
4 | 26000 to 100000 nM | 26 to 100 nM | 26 to 100 nM | NC(CCCCB(O)O)(C(=O)O)C1CC2CCC(C1)N2Cc1ccc(OC(F)(F)F)cc1 (stereo not drawn) [Example 64, 2-amino-6-borono-2-(8-(4-(trifluoromethoxy)benzyl)-8-azabicyclo[3.2.1]octan-3-yl)hexanoic acid] | 
5 | 1000 to 25000 nM | 501 to 1500 nM | 101 to 500 nM | CCN(CCO)CC[C@](N)(CCCCB(O)O)C(=O)O [Example 67, (R)-2-amino-6-borono-2-(2-(ethyl(2-hydroxyethyl)amino)ethyl)hexanoic acid] | 
6 | 1000 to 25000 nM | 101 to 500 nM | 101 to 500 nM | CCN(CC)CC[C@](N)(CCCCB(O)O)C(=O)O [Example 68, (R)-2-amino-6-borono-2-(2-(diethylamino)ethyl)hexanoic acid] | 
7 |  |  |  | NC(=NCCC[C@H](N)C(=O)O)NO [NOHA] | CD3 expression on T-cells [5]: reestablished; production of NO by macrophages [5]: enhanced
8 |  |  |  | N[C@@H](CSCCB(O)O)C(=O)O [S-(2-boronoethyl)-L-cysteine] | methacholine induced responsiveness of the central airways [6]: attenuated
9 |  |  |  | N=C(NO)NCC[C@H](N)C(=O)O [nor-NOHA, N^ω-hydroxy-nor-L-arginine] | blood pressure [7]: lowered; vascular response of resistance vessels to blood flow and pressure [7]: improved

Row | SMILES | IC50 [2] | IC50 [3] | IC50 [4] | also measured
10 | NC(CCCCB(O)O)(C(=O)O)C1CC2CCC(C1)N2 (stereo not drawn) [Example 61, 2-amino-2-(8-azabicyclo[3.2.1]octan-3-yl)-6-boronohexanoic acid] | 1000 to 25000 nM | 26 to 100 nM | 26 to 100 nM | 
11 | NC(CCCCB(O)O)(C(=O)O)C1CC2CCC(C1)N2Cc1ccccc1 (stereo not drawn) [Example 62, 2-amino-2-(8-benzyl-8-azabicyclo[3.2.1]octan-3-yl)-6-boronohexanoic acid] | 1000 to 25000 nM | 0.1 to 25 nM | 26 to 100 nM | 
12 | NC(CCCCB(O)O)(C(=O)O)C1CC2CCC(C1)N2Cc1ccc(F)c(F)c1 (stereo not drawn) [Example 63, 2-amino-6-borono-2-(8-(3,4-difluorobenzyl)-8-azabicyclo[3.2.1]octan-3-yl)hexanoic acid] | 1000 to 25000 nM | 0.1 to 25 nM | 26 to 100 nM | 
